This is an account of results in US11465987B2, “Compounds for treatment of cancer” (ONCTERNAL THERAPEUTICS, INC., priority 2012, dated 2022).

Structures can show the parent of a compound that is named as a salt. Where two headings read alike, the source gives them in different places.

The subject of experiment [1] is melanoma and prostate cancer cell lines. The experiment can be described thus: Antiproliferative activity summarised over the cell line panel (range or average). In kind it is cell-based. The settings on record: for antiproliferative activity in words: Tables 1-3.
Experiment [2] has as its system PC-3 human prostate cancer cell line. Description: cells. The settings on record: Homo sapiens. From the text: (§1) Cells were stained with SRB solution.
Experiment [3] relates to LNCaP human prostate cancer cell line. Description: Cytotoxicity (SRB) assay, LNCaP. In kind it is cell-based.
Text: as §1

The subject of experiment [4] is DU 145 human prostate cancer cell line. The experiment can be described thus: Cytotoxicity (SRB) assay, DU 145. The note with it: Homo sapiens. In kind it is cell-based.
Text: as §1

The test system of experiment [5] is PPC-1 human prostate cancer cell line. The experiment can be described thus: Cytotoxicity (SRB) assay, PPC-1. In kind it is cell-based. The settings on record: Homo sapiens.
Text: as §1

Setting [6] is: read-out: IC50 PC-3, SRB assay, prostate cancer PC-3.
The mark [7] stands for this setting: Tables 1-2, read-out: IC50 (range or bound over tested cell lines).
[8] abbreviates: range over prostate cancer cell lines, read-out: IC50 range against prostate cancer cells.
Where [9] appears, read: Homo sapiens, LNCaP, SRB assay, prostate cancer LNCaP, read-out: IC50 LNCaP.
The mark [10] stands for this setting: PPC-1, SRB assay, prostate cancer PPC-1, read-out: IC50 PPC-1.
Setting [11] is: read-out: IC50 ± SEM, PC-3, Table 13.
Where [12] appears, read: Tables 11-13, read-out: IC50 (average of all seven cell lines).
Where [13] appears, read: DU-145, Table 13A, read-out: inhibitory effects, DU145.
The mark [14] stands for this setting: Homo sapiens, LNCaP, Table 13A, read-out: inhibitory effects, LNCaP.
Where [15] appears, read: PPC-1, Table 13A, read-out: inhibitory effects, PPC1.
[16] abbreviates: DU-145, Table 6A, read-out: IC50 ± SEM, DU 145.
Where [17] appears, read: read-out: IC50 ± SEM, PC-3, Table 6A.
[18] abbreviates: PPC-1, Table 6A, read-out: IC50 ± SEM, PPC-1 (converted).

On to `COc1cc(C(=O)c2cccc(-c3ccccc3)c2)cc(OC)c1OC` [1a, Biphenyl-3-yl(3,4,5-trimethoxyphenyl)methanone], for which the “antiproliferative activity in words” value in experiment [1] is “hundreds of nanomolar range”.

Take `COc1cc(C(=O)c2cc(-c3ccccc3)ncn2)cc(OC)c1OC` [1b, (6-Phenylpyrimidin-4-yl)(3,4,5-trimethoxyphenyl)methanone]: the IC50 in experiment [2] (setting [6]) was 8.3 µM; in experiment [1] (setting [7]) it was 3.7 to 8.3 µM.

With `COc1cc(C(=O)c2ccc(-c3ccccc3)o2)cc(OC)c1OC` [1d, (5-Phenylfuran-2-yl)(3,4,5-trimethoxyphenyl)methanone], the IC50 in experiment [2] (setting [6]) was 0.021 µM; in experiment [1] (setting [8]), 0.012 to 0.035 µM.

For the compound `COc1cc(C(=O)c2cnc(-c3ccccc3)s2)cc(OC)c1OC` [1e, (2-Phenylthiazol-5-yl)(3,4,5-trimethoxyphenyl)methanone], the IC50 in experiment [1] (setting [7]) was over 10 µM.

In the case of `COc1cc(C(=O)c2csc(-c3ccccc3)c2)cc(OC)c1OC` [1f, (5-Phenylthiophen-3-yl)(3,4,5-trimethoxyphenyl)methanone], the IC50 is 0.012 µM in experiment [2] (setting [6]) and 0.012 to 0.035 µM in experiment [1] (setting [8]).

Take `COc1cc(C(=O)N2CCC(c3ccccc3)CC2)cc(OC)c1OC` [1g, (4-Phenylpiperidin-1-yl)(3,4,5-trimethoxyphenyl)methanone]: in experiment [1] (setting [7]), the IC50 was over 20 µM.

In the case of `COc1cc(C(=O)c2cc(-c3ccccc3)on2)cc(OC)c1OC` [1i, (5-Phenylisoxazol-3-yl)(3,4,5-trimethoxyphenyl)methanone], in experiment [1] (setting [7]), the IC50 was over 10 µM.

Consider `COc1cc(C(O)c2csc(-c3ccccc3)n2)cc(OC)c1OC` (stereo not shown) [2b, (2-Phenylthiazol-4-yl)(3,4,5-trimethoxyphenyl)methanol], for which the IC50 in experiment [2] (setting [6]) was over 10 µM. In addition, the “antiproliferative activity in words” value in experiment [1] was “inactive”.

For the compound `COc1cc(/C(=N/O)c2csc(-c3ccccc3)n2)cc(OC)c1OC` [2e-cis, (Z)-(2-Phenylthiazol-4-yl)(3,4,5-trimethoxyphenyl)methanone oxime], the IC50 in experiment [2] (setting [6]) is 0.12 µM; in experiment [1] (setting [7]), 0.1 to 0.3 µM. Also, the “fold more activity than anti-isomer” value in experiment [1] (2e-cis vs 2e-trans) amounted to 10 fold.

For the compound `COc1cc(/C(=N\O)c2csc(-c3ccccc3)n2)cc(OC)c1OC` [2e-trans, (E)-(2-Phenylthiazol-4-yl)(3,4,5-trimethoxyphenyl)methanone oxime], the IC50 in experiment [2] (setting [6]) and in experiment [1] (setting [7]) was over 10 µM each time.

With `COc1cc(NC(=O)c2csc(-c3ccccc3)n2)cc(OC)c1OC` [2g, 2-Phenyl-N-(3,4,5-trimethoxyphenyl)thiazole-4-carboxamide], the IC50 in experiment [2] (setting [6]) and in experiment [3] (setting [9]) was over 10 µM each time.

On to `CNCc1ccc(-c2nc(C(=O)c3cc(OC)c(OC)c(OC)c3)cs2)cc1.Cl` [2s, (2-(4-((Methylamino)methyl)phenyl)thiazol-4-yl)(3,4,5-trimethoxyphenyl)methanone hydrochloride], for which the IC50 in experiment [4] (SRB assay, prostate cancer DU 145, read-out: IC50 DU 145) is over 10 µM; in experiment [2] (read-out: IC50 PC-3), over 10 µM. Also, the “antiproliferative activity in words” value in experiment [1] is recorded as “abrogated activity”.

Consider `COc1cc(C(=O)c2csc(-c3ccc(CN(C)C)cc3)n2)cc(OC)c1OC.Cl` [2u, (2-(4-((Dimethylamino)methyl)phenyl)thiazol-4-yl)(3,4,5-trimethoxyphenyl)methanone hydrochloride], for which, in experiment [2] (setting [6]), the IC50 is over 10 µM. For the same compound, in experiment [1], the “antiproliferative activity in words” value is listed as “abrogated activity”.

Consider `COc1cc(C(=O)c2csc(Nc3ccc(C)cc3)n2)cc(OC)c1OC` [5Hb, (2-(p-tolylamino)thiazol-4-yl)(3,4,5-trimethoxyphenyl)methanone hydrochloride salt], for which the IC50 in experiment [4] (DU-145, SRB assay, prostate cancer DU 145, read-out: IC50 DU 145) is 0.035 ± 0.001 µM; in experiment [2] (setting [6]), 0.038 ± 0.002 µM; in experiment [3] (setting [9]) it was 0.035 ± 0.001 µM; in experiment [5] (setting [10]), 0.036 ± 0.001 µM.

Regarding `COc1cc(C(=O)c2cn(S(=O)(=O)c3ccccc3)c(-c3cc(OC)c(OC)c(OC)c3)n2)cc(OC)c1OC` [11ea, (1-(phenylsulfonyl)-2-(3,4,5-trimethoxyphenyl)-1H-imidazol-4-yl)(3,4,5-trimethoxyphenyl)methanone], the values for the IC50 in experiment [2] (setting [11]) and in experiment [1] (setting [12]) were over 10 µM and 1 to 50 µM, respectively.

With `COc1cc(-c2nc(C(=O)c3ccc(F)cc3)cn2S(=O)(=O)c2ccccc2)cc(OC)c1OC` [11eb, (4-fluorophenyl)(1-(phenylsulfonyl)-2-(3,4,5-trimethoxyphenyl)-1H-imidazol-4-yl)methanone], the IC50 was over 10 µM in experiment [2] (setting [11]) and 1 to 50 µM in experiment [1] (setting [12]).

As to `COc1ccc(-c2nc(C(=O)c3ccc(F)cc3)cn2S(=O)(=O)c2ccccc2)cc1OC` [11hb, (2-(3,4-dimethoxyphenyl)-1-(phenylsulfonyl)-1H-imidazol-4-yl)(4-fluorophenyl)methanone], the IC50 in experiment [2] (setting [11]) is 10 µM; in experiment [1] (setting [12]), 1 to 50 µM.

Consider `COc1cc(C(=O)c2cn(S(=O)(=O)c3ccccc3)c(-c3ccccc3C(F)(F)F)n2)cc(OC)c1OC` [11ia, (1-(phenylsulfonyl)-2-(2-(trifluoromethyl)phenyl)-1H-imidazol-4-yl)(3,4,5-trimethoxyphenyl)methanone], for which the IC50 in experiment [2] (setting [11]) was over 10 µM; in experiment [1] (setting [12]) it was 1 to 50 µM.

Consider `O=C(c1ccc(F)cc1)c1cn(S(=O)(=O)c2ccccc2)c(-c2ccccc2C(F)(F)F)n1` [11ib, (1-(phenylsulfonyl)-2-(2-(trifluoromethyl)phenyl)-1H-imidazol-4-yl)(4-fluorophenyl)methanone], for which the IC50 was over 10 µM in experiment [2] (setting [11]) and 1 to 50 µM in experiment [1] (setting [12]).

Take `COc1cc(-c2nc(C(=O)c3ccc(F)cc3)c[nH]2)cc(OC)c1OC` [12eb]: the IC50 in experiment [1] (setting [12]) was in the range of 1 to 50 µM.

Regarding `COc1cc(C(=O)[C@H]2COC(c3ccccc3)=N2)cc(OC)c1OC` [35a, (2R)-(2-Phenyl-4,5-dihydro-oxazol-4-yl)-(3,4,5-trimethoxy-phenyl)-methanone], in experiment [1], the “antiproliferative activity in words” value is recorded as “hundreds of nanomolar range”.

For the compound `COc1cc(C(=O)c2coc(-c3ccccc3)n2)cc(OC)c1OC` [36a, (2-Phenyl-oxazol-4-yl)-(3,4,5-trimethoxy-phenyl)-methanone], in experiment [1], the “antiproliferative activity in words” value is “hundreds of nanomolar range”.

On to `COc1cc(C(=O)c2csc(-c3ccc4[nH]ccc4c3)n2)cc(OC)c1OC` [66a], for which the values for the IC50 in experiment [2] (setting [6]) and in experiment [1] (read-out: IC50 (range over tested cell lines)) were 0.007 µM and 0.007 to 0.025 µM, respectively.

On to `CCCn1cc(-c2ccccc2)nc1C(=O)c1cc(OC)c(OC)c(OC)c1` [70ab], for which the IC50 amounted to 0.0716 µM in experiment [4] (DU-145, read-out: inhibitory effects, DU145); 0.0256 µM in experiment [2] (read-out: inhibitory effects, PC3); 0.0494 µM in experiment [3] (Homo sapiens, LNCaP, read-out: inhibitory effects, LNCaP); 0.0098 µM in experiment [5] (PPC-1, read-out: inhibitory effects, PPC1).

Take `COc1cc(C(=O)c2nc(-c3ccccc3)cn2C(C)C)cc(OC)c1OC` [70ac]: the IC50 in experiment [4] (setting [13]) was determined as 0.114 µM; in experiment [2] (read-out: inhibitory effects, PC3, Table 13A), 0.0525 µM; in experiment [3] (setting [14]), 0.0622 µM; in experiment [5] (setting [15]), 0.015 µM.

With `COc1cc(C(=O)c2nc(-c3ccccc3)cn2-c2ccccn2)cc(OC)c1OC` [70ad], the IC50 in experiment [4] (setting [13]) came out at 0.0363 µM; in experiment [3] (setting [14]) it was 0.0195 µM; in experiment [5] (setting [15]), 0.0078 µM.

For `COc1cc(C(=O)c2nc(-c3ccc(C)cc3)c[nH]2)cc(OC)c1OC` [70f, (4-p-Tolyl-1H-imidazol-2-yl)(3,4,5-trimethoxyphenyl)methanone and (5-p-tolyl-H-imidazol-2-yl)(3,4,5-trimethoxyphenyl)methanone], the IC50 in experiment [3] (Table 13A, read-out: inhibitory effects, LNCaP) stood at 0.013 µM.

Turning to `O=C(c1ccc(F)cc1)N1CCC(c2ccccc2)CC1` [compound 22], the IC50 in experiment [4] (setting [16]), in experiment [2] (setting [17]) and in experiment [5] (setting [18]) was over 20 µM throughout.

With `COc1cc(C(=O)c2csc(-c3ccccc3)n2)cc(OC)c1OC(=O)C(F)(F)F` [compound 23], the IC50 in experiment [4] (setting [16]), in experiment [2] (setting [17]) and in experiment [5] (setting [18]) was about 10 µM each time.

For the compound `COc1cc(-c2nc(C(=O)c3ccc(F)cc3)cn2C(=O)c2ccc(F)cc2)cc(OC)c1OC` [compound 30], the IC50 in experiment [4] (setting [16]), in experiment [2] (setting [17]) and in experiment [5] (setting [18]) was over 10 µM in each case.

`O=C(c1cc(O)c(O)c(O)c1)c1csc(-c2ccccc2)n1` [compound 33]: the IC50 in experiment [4] (setting [16]), in experiment [2] (setting [17]) and in experiment [5] (setting [18]) was over 2 µM throughout.

On to `COc1cc(C(=O)c2csc(-c3ccccc3)n2)cc(OC)c1O` [compound 34], for which the IC50 in experiment [4] (setting [16]), in experiment [2] (setting [17]) and in experiment [5] (setting [18]) was over 10 µM throughout.

As for `COc1cc(C(=O)C2N(C)C=C(c3ccccc3)N2C)cc(OC)c1OC` (stereo not shown) [compound 105, (1,3-Dimethyl-4-phenyl-2,3-dihydro-1H-imidazol-2-yl)(3,4,5-trimethoxyphenyl)methanone], the values for the IC50 in experiment [2] (setting [6]), in experiment [3] (setting [9]) and in experiment [5] (setting [10]) were 3.49 µM, 4.24 µM and 5.29 µM, respectively.
